Assay results: publication PMC10355216, “The C-terminal tail of CSNAP attenuates the CSN complex” (Life Science Alliance, 2023)

How the values were obtained:
CSN^ΔCSNAP complex = experiment: Peptide array screen of C-CSNAP peptides with rCSN^ΔCSNAP; assay type: binding; conditions: average of 5 experiments;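 further: Array-printed peptides incubated with 0.5 µM CSN^ΔCSNAP, bound complex detected by anti-CSN3 antibody plus HRP-linked secondary, spot intensity expressed relative to the parent reference peptide spot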
Procedure: Peptide array screen of modified C-CSNAP peptides. C-CSNAP peptide and its derivatives were printed on a microarray. The array was blocked and incubated with or without the CSN∆CSNAP complex and probed using an anti-CSN3 antibody and HRP-conjugated secondary antibody. To assess non-specific binding of the antibodies to the array, anti-CSN3 and anti-GAR-HRP were used without the addition of the COP9 signalosome complex (CSN). Signal intensity of each spot was measured and normalized to the intensity of the spot of C-CSNAP (A1). Measured values for each spot were averaged from six arrays and plotted with standard errors SEM.
Intensity values are normalized to the intensity of the 16AA C-CSNAP peptide (A1) on each array from three independent experiments in duplicates, and averages from the six replicates are calculated with SEM.
Optimization of C-CSNAP sequence for enhanced binding to recombinant CSN^ΔCSNAP was screened by printing the modified sequences of CSNAP or C-CSNAP (Phe to Trp, Asp to Glu, Ala screen, D-amino acid screen, N-α-methylation, and Aib incorporation on INTAVIS Celluspots array [2 × 384spots]). The array was blocked with 5% skim milk in TBS-0.5% Tween 20 (TBS-T) for 4 h at room temperature, washed three times in TBS-T, and then incubated with 0.5 μM CSN^ΔCSNAP in 5% milk–TBS-T. Bound CSN^ΔCSNAP was visualized by incubating with anti-CSN3 (ab79698) antibody (1:10,000, overnight) and goat-anti-rabbit-HRP secondary antibody (1:10,000, 1 h).

recombinant CSN complex = experiment: Peptide array screen of C-CSNAP peptides with recombinant CSN (rCSN^WT); assay type: binding; conditions: for Average fold change: peptide array with rCSN, average of 3 experiments, left and right (n = 6), fold of C-CSNAP (A1); for Average fold change, intensities as fold of C-CSNAP (A1): rCSN^WT on INTAVIS Celluspots array, anti-CSN3 and HRP secondary antibody, average of six replicates (three independent experiments in duplicates); for intensities as fold of C-CSNAP (A1), Experiment #1 left / intensities as fold of C-CSNAP (A1), Experiment #1 right / intensities as fold of C-CSNAP (A1), Experiment #2 left / intensities as fold of C-CSNAP (A1), Experiment #2 right / intensities as fold of C-CSNAP (A1), Experiment #3 left / intensities as fold of C-CSNAP (A1), Experiment #3 right: rCSN^WT peptide array; for intensities as fold of C-CSNAP (A1), Experiment #1 left: replicate: Experiment #1, left array; for intensities as fold of C-CSNAP (A1), Experiment #1 right: replicate: Experiment #1, right array; for intensities as fold of C-CSNAP (A1), Experiment #2 left: replicate: Experiment #2, left array; for intensities as fold of C-CSNAP (A1), Experiment #2 right: replicate: Experiment #2, right array; for intensities as fold of C-CSNAP (A1), Experiment #3 left: replicate: Experiment #3, left array; for intensities as fold of C-CSNAP (A1), Experiment #3 right: replicate: Experiment #3, right array;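 on all read-outs here: densitometric signal of CSN bound to each synthesized peptide spot, with an antibody-only array lacking CSN run to exclude non-specific binding, higher values meaning stronger binding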
[1] = peptide array, rCSN^ΔCSNAP, left and right spots
[2] = peptide array with rCSN^ΔCSNAP, left and right (n = 10), fold of C-CSNAP (A1)

Substance | Average fold change (CSN^ΔCSNAP complex; [1]) | Average fold change, intensities as fold of C-CSNAP (A1) (recombinant CSN complex) | other results
DFFNEFEELFEDEDIQ [D46,49,52,54E] | 0.9254 fold of C-CSNAP (A1) | – | Average fold change (recombinant CSN complex): 0.5934 fold
DFWNDFEDLFDDDDIQ [Position C13, C-CSNAP, Phe to Trp substitution F44W] | 1.2883 fold of C-CSNAP (A1) | 0.8173 fold of C-CSNAP (A1) | –
DFFNDFEDAFDDDDIQ [C 4, C-CSNAP, Ala substitution L50A] | – | 0.5335 fold of C-CSNAP (A1) | Average fold change (CSN^ΔCSNAP complex; [2]): 0.8879 fold
DFFNDFEDLFEDEEIQ [D52,53,56E] | 1.1721 fold of C-CSNAP (A1) | – | Average fold change (recombinant CSN complex): 0.6027 fold
DFFNDFEELFEDEDIQ [Position E18, C-CSNAP, Asp to Glu substitution D49,52,54E] | 0.9681 fold of C-CSNAP (A1) | 0.6310 fold of C-CSNAP (A1) | –
EFFNDFEDLFDDDEIQ [Position D15, C-CSNAP, Asp to Glu substitution D42,55E] | 1.0098 fold of C-CSNAP (A1) | 0.7777 fold of C-CSNAP (A1) | –
DFFNEFEELFEDEEIQ [D46,49,52,54,55E] | 1.2301 fold of C-CSNAP (A1) | – | Average fold change (recombinant CSN complex): 0.5968 fold
DFFNDFEELFEEDEIQ [D49,52,53,55E] | 1.1749 fold of C-CSNAP (A1) | – | Average fold change (recombinant CSN complex): 0.6996 fold
DFFNDFEELFDEDDIQ [Position D22, C-CSNAP, Asp to Glu substitution D49,53E] | 1.3252 fold of C-CSNAP (A1) | 0.6642 fold of C-CSNAP (A1) | –
DFFNDFEELFDDDEIQ [Position D24, C-CSNAP, Asp to Glu substitution D49,55E] | 1.2175 fold of C-CSNAP (A1) | 0.5347 fold of C-CSNAP (A1) | –
DFFNDFEDLFDDEDIQ [D 8, C-CSNAP, Asp to Glu substitution D54E] | 1.1238 fold of C-CSNAP (A1) | 0.9836 fold of C-CSNAP (A1) | –
HADFFNDFEDLFDDDDIQ [A 3, CSNAP residues 40-57] | – | 1.0326 fold of C-CSNAP (A1) | Average fold change (CSN^ΔCSNAP complex; [2]): 0.8215 fold
DFFNDFEELFDDEDIQ [Position D23, C-CSNAP, Asp to Glu substitution D49,54E] | 1.0923 fold of C-CSNAP (A1) | 0.5825 fold of C-CSNAP (A1) | –
EFFNEFEELFEEDDIQ [D42,46,49,52,53E] | 1.2332 fold of C-CSNAP (A1) | – | Average fold change (recombinant CSN complex): 0.6954 fold
DFFNEFEELFDEDDIQ [Position E14, C-CSNAP, Asp to Glu substitution D46,49,53E] | 0.9920 fold of C-CSNAP (A1) | 0.6197 fold of C-CSNAP (A1) | –
DWFNDFEDLFDDDDIQ [Position C12, C-CSNAP, Phe to Trp substitution F43W] | 1.2910 fold of C-CSNAP (A1) | 0.7756 fold of C-CSNAP (A1) | –
DFFN-Aib-FEDLF-Aib-DDDI-Aib [Position H17, C-CSNAP with Aib incorporation (46,52,57)] | – | 0.3449 fold of C-CSNAP (A1) | Average fold change, intensities as fold of C-CSNAP (A1) (CSN^ΔCSNAP complex; [1]): 0.7091 fold; intensities as fold of C-CSNAP (A1), Experiment #1 left (recombinant CSN complex): 0.3158 fold of C-CSNAP (A1); intensities as fold of C-CSNAP (A1), Experiment #1 right (recombinant CSN complex): 0.2689 fold of C-CSNAP (A1); intensities as fold of C-CSNAP (A1), Experiment #2 left (recombinant CSN complex): 0.1472 fold of C-CSNAP (A1); intensities as fold of C-CSNAP (A1), Experiment #2 right (recombinant CSN complex): 0.2740 fold of C-CSNAP (A1); intensities as fold of C-CSNAP (A1), Experiment #3 left (recombinant CSN complex): 0.2292 fold of C-CSNAP (A1); intensities as fold of C-CSNAP (A1), Experiment #3 right (recombinant CSN complex): 0.8343 fold of C-CSNAP (A1)
LAANEKAVHADFFNDFEDLFDDDDIQ [Position A11, CSNAP residues 32-57] | – | 1.1357 fold of C-CSNAP (A1) | Average fold change (CSN^ΔCSNAP complex; [2]): 1.1791 fold
DFFNDFEELFEDDDIQ [Position D21, C-CSNAP, Asp to Glu substitution D49,52E] | 1.3626 fold of C-CSNAP (A1) | 0.6335 fold of C-CSNAP (A1) | –
YVDLDEAGGSTGLLMDLAANEKAVHADFFNDFEDLFDDDDIQ [B 3, CSNAP residues 16-57] | – | 1.1108 fold of C-CSNAP (A1) | Average fold change (CSN^ΔCSNAP complex; [2]): 0.9215 fold
DFFNDFEDLFDDDDAQ [Position C10, C-CSNAP, Ala substitution I56A] | – | 1.1392 fold of C-CSNAP (A1) | Average fold change (CSN^ΔCSNAP complex; [2]): 1.2151 fold
EFFNEFEDLFEDDDIQ [E 5, C-CSNAP, Asp to Glu substitution D42,46,52E] | 1.0465 fold of C-CSNAP (A1) | 0.8794 fold of C-CSNAP (A1) | –
EFFNDFEDLFEEEDIQ [D42,52,53,54E] | 1.1111 fold of C-CSNAP (A1) | – | Average fold change (recombinant CSN complex): 0.7432 fold
DFFNDFEDLWDDDDIQ [Position C15, C-CSNAP, Phe to Trp substitution F51W] | 1.0302 fold of C-CSNAP (A1) | 0.8159 fold of C-CSNAP (A1) | –
DAFNDFEDLFDDDDIQ [Position B21, C-CSNAP, Ala substitution F43A] | – | 0.8509 fold of C-CSNAP (A1) | Average fold change (CSN^ΔCSNAP complex; [2]): 1.1048 fold
STGLLMDLAANEKAVHADFFNDFEDLFDDDDIQ [Position A18, CSNAP residues 25-57] | – | 0.9600 fold of C-CSNAP (A1) | Average fold change (CSN^ΔCSNAP complex; [2]): 1.3562 fold
EFFNEFEELFDEDDIQ [D42,46,49,53E] | 1.2266 fold of C-CSNAP (A1) | – | Average fold change (recombinant CSN complex): 0.3807 fold
DFF-Aib-DFED-Aib-FDDDI-Aib-Q [Position H16, C-CSNAP with Aib incorporation (45,50,56)] | – | 0.4930 fold of C-CSNAP (A1) | Average fold change, intensities as fold of C-CSNAP (A1) (CSN^ΔCSNAP complex; [1]): 0.8483 fold; intensities as fold of C-CSNAP (A1), Experiment #1 left (recombinant CSN complex): 0.3868 fold of C-CSNAP (A1); intensities as fold of C-CSNAP (A1), Experiment #1 right (recombinant CSN complex): 0.3074 fold of C-CSNAP (A1); intensities as fold of C-CSNAP (A1), Experiment #2 left (recombinant CSN complex): 0.3253 fold of C-CSNAP (A1); intensities as fold of C-CSNAP (A1), Experiment #2 right (recombinant CSN complex): 0.4113 fold of C-CSNAP (A1); intensities as fold of C-CSNAP (A1), Experiment #3 left (recombinant CSN complex): 0.4290 fold of C-CSNAP (A1); intensities as fold of C-CSNAP (A1), Experiment #3 right (recombinant CSN complex): 1.0982 fold of C-CSNAP (A1)
DFFNDFEELFDDDDIQ [D 5, C-CSNAP, Asp to Glu substitution D49E] | 0.9235 fold of C-CSNAP (A1) | 0.8086 fold of C-CSNAP (A1) | –
